In paper PMC12040169 (PLOS Biology, 2025):

Assay: in vitro
Details: human, hela cells, % viability

| Compound | viability at 28.5 h, 10 µM [%] |
| --- | --- |
| CN1CCC(Oc2nc3ccccc3nc2C(F)(F)F)CC1 [CBK113299] | 90.1 |
| COc1ccc(C)cc1S(=O)(=O)n1ccc2c(CNC3CCN(C)CC3)cccc21 [CBK113308T] | 90.6 |
| COc1ccc(C)cc1S(=O)(=O)n1ccc2c(CNC3CCN(C(C)C)CC3)cccc21 [CBK113310T] | 117 |
| COc1ccc(C)cc1S(=O)(=O)n1ccc2c(CNC3CC(C)(C)NC(C)(C)C3)cccc21 [CBK113311T] | 83.1 |
| COc1ccc(C)cc1S(=O)(=O)n1ccc2c(CN3CCC(N)CC3)cccc21 [CBK113312T] | 78.6 |
| c1cc(-c2cncc(-c3ccsc3)n2)cs1 [CBK113356] | 95.7 |
| C#CCOc1cncc(Cl)n1 [CBK113370] | 87.7 |
| Clc1cncc(-c2ccccc2)n1 [CBK113371] | 93.8 |
| CC(C)(C)OC(=O)N1CCN(c2ccc(Cl)nn2)CC1 [CBK113381] | 96.2 |
| OCCOc1ccnc2ccccc12 [CBK113395] | 95.8 |
| CC(C)Nc1nccnc1OCCN1CCOCC1 [CBK113410] | 104 |
| CN(C)CCCOc1nccnc1N1CCCC1 [CBK113427] | 89.6 |
| FC(F)(F)c1ccnc(OCCN2CCNCC2)c1 [CBK113459] | 97.4 |
| CN1CCN(C)C(COc2cc(C(F)(F)F)ccn2)C1 (stereo not drawn) [CBK113460] | 90.7 |
| FC(F)(F)c1ccc(OCCN2CCOCC2)nc1 [CBK113461] | 101 |
| FC(F)(F)c1ccc(OCCN2CCNCC2)nc1 [CBK113462] | 110 |
| COc1ccc(SCCCCN2CCC3(CC2)OCCc2c3[nH]c3ccccc23)cc1 [CBK113464T] | 0.266 |
| Cc1ccc(C(=O)NCCCN2CCC3(CC2)OCCc2c3[nH]c3ccccc23)cc1 [CBK113485] | 85.5 |
| Cc1ccc(-n2sc(=O)n(CCc3ccccc3)c2=O)cc1 [CBK113496] | 110 |
| COc1ccc(OCCCCCN2CCC3(CC2)OCCc2c3[nH]c3ccccc23)cc1 [CBK113517T] | 0 |
| CCCc1n[nH]c(-c2ccccc2Cl)c1C(=O)OCC [CBK113547] | 107 |
| CCCc1n[nH]c(-c2ccc(Cl)cc2Cl)c1C(=O)OCC [CBK113548] | 107 |
| FCCOc1cncc(Cl)n1 [CBK113553] | 115 |
| Clc1nccnc1NCCOc1ccccc1 [CBK113564] | 93.8 |

| Compound | viability at 28.5 h, 10 µM [%] |
| --- | --- |
| O=C1N=C(NC2C3CC4CC(C3)CC2C4)OC12CCCC2 (stereo not drawn) [CBK113576] | 94.2 |
| O=c1sn(C2CCCCC2)c(=O)n1Cc1ccc(F)cc1 [CBK113604] | 90.8 |
| Cc1ccccc1-n1sc(=O)n(Cc2ccc(F)cc2)c1=O [CBK113605] | 101 |
| CC(=O)OC1CCn2c1nc1ccccc12 (stereo not drawn) [CBK113621] | 92.6 |
| Cc1ccc2c(c1)nc1n2CCC1O (stereo not drawn) [CBK113622] | 88.1 |
| OC1CCn2c1nc1cc(Cl)ccc12 (stereo not drawn) [CBK113623] | 79.2 |
| CC(=O)Nc1cccc(-c2nc(-c3ccc(C#N)cc3)cnc2N)c1 [CBK113659] | 100 |
| O=C1CSC2c3ccccc3C(=O)N2c2ccccc21 (stereo not drawn) [CBK113670] | 108 |
| NS(=O)(=O)c1cc(C(=O)O)ccc1Cl [CBK113676] | 108 |
| Cn1c(=O)sn(-c2ccccc2)c1=O [CBK113677] | 115 |
| Cc1oc(S(=O)(=O)N(C)C)cc1C(=O)O [CBK113681] | 98.1 |
| O=C1c2ccccc2C(=O)N1c1ccccn1 [CBK113682] | 99.5 |
| CC(C)c1ccc(N2C(=O)SC(c3ccccc3)C2=O)cc1 (stereo not drawn) [CBK113687] | 91.1 |
| Cc1ccc(NC(=O)c2ccccc2NS(=O)(=O)c2ccc(C(C)C)cc2)cc1 [CBK113800] | 77.8 |
| Cc1cc(C)cc(NC(=O)c2ccccc2NS(=O)(=O)c2ccc(F)c(F)c2F)c1 [CBK113886] | 89.1 |
| Cc1cc(C)cc(NC(=O)c2ccccc2NS(=O)(=O)c2cccc(Cl)c2)c1 [CBK113887] | 94.9 |
| COc1ccc(NS(=O)(=O)c2ccc(Cl)cc2Cl)c(C(=O)NCc2ccccc2)c1 [CBK113943] | 98.4 |
| COc1ccc(NS(=O)(=O)c2c(Cl)cccc2Cl)c(C(=O)NCc2ccccc2)c1 [CBK113952] | 79.8 |
| COc1ccc(NS(=O)(=O)c2cccc(Cl)c2C)c(C(=O)NCc2ccccc2)c1 [CBK113953] | 85.3 |
| COc1ccc(C)cc1S(=O)(=O)Nc1cc(Cl)ccc1C(=O)NCc1ccccc1 [CBK113954] | 85.5 |
| COc1ccc(CNC(=O)c2ccccc2NS(=O)(=O)c2cc(Cl)ccc2Cl)cc1 [CBK113964] | 101 |
| CCCC(CCC)NC(=O)c1ccc(-n2nc(C(=O)OCC)c(Cl)c2C)cc1 [CBK114323] | 93.9 |
| CCOC(=O)c1cnc(C2CC2)nc1NCc1cccc(C)c1C [CBK114707] | 102 |
| COCc1nnc(Sc2nccnc2NC(C)C)s1 [CBK115204] | 99.6 |

| Compound | viability at 28.5 h, 10 µM [%] |
| --- | --- |
| FC(F)(F)c1ccc(Sc2ccncc2)nc1 [CBK115217] | 108 |
| COCc1nnc(Sc2ccc(C(F)(F)F)cn2)s1 [CBK115219] | 100 |
| Cc1nnc(Sc2cccc(C(F)(F)F)n2)s1 [CBK115222] | 95.4 |
| Cc1ccccc1Sc1ncccc1C(F)(F)F [CBK115231] | 104 |
| Cc1ccccc1Sc1cc(C(F)(F)F)ccn1 [CBK115233] | 94.4 |
| FC(F)(F)c1ccnc(Sc2cccc(Cl)c2)c1 [CBK115234] | 94.8 |
| FC(F)(F)c1cccc(Sc2cccs2)n1 [CBK115242] | 91.5 |
| FC(F)(F)c1ccnc(Sc2cccc(Cl)c2)n1 [CBK115247] | 98.5 |
| CC(C)Nc1nc2ccccc2nc1Sc1ccncc1 [CBK115250] | 102 |
| CC(C)Nc1nc2cc(Cl)c(Cl)cc2nc1Sc1nc[nH]n1 [CBK115261] | 93.3 |
| Nc1nnc(Sc2nc3cc(Cl)c(Cl)cc3nc2N2CCCC2)s1 [CBK115267] | 98.9 |
| Oc1cccc(Sc2cc(C(F)(F)F)ccn2)c1 [CBK115273] | 97.7 |
| c1cnc(N2CCCC2)c(OC2CCNC2)n1 (stereo not drawn) [CBK115284] | 98.3 |
| NCCCOc1cc(N2CCCC2)ncn1 [CBK115285] | 106 |
| NCCCOc1nc2ccccc2nc1N1CCCC1 [CBK115287] | 95.8 |
| c1ccc2nc(N3CCCC3)c(OC3CCNC3)nc2c1 (stereo not drawn) [CBK115288] | 99.9 |
| CN1CCC(Oc2nc3cc(Cl)c(Cl)cc3nc2N2CCCC2)CC1 [CBK115290] | 82.2 |
| CN1CCN(C)C(COc2nc3cc(Cl)c(Cl)cc3nc2N2CCCC2)C1 (stereo not drawn) [CBK115294] | 92 |
| CCOC(=O)c1[nH]c2c([N+](=O)[O-])cccc2c1O [CBK115315] | 88.1 |
| COc1cc(C(C[N+](=O)[O-])c2c(C)[nH]c3ccccc23)ccc1O (stereo not drawn) [CBK115317] | 82.9 |
| COc1ccc2c(c1OC)C(=O)N(c1cccc([N+](=O)[O-])c1)C2 [CBK115318] | 99.5 |
| Cc1cccc(-n2c(C#N)c(O)c3ccccc32)c1C [CBK115319] | 106 |
| N#Cc1ccccc1N1C(=O)c2cccc([N+](=O)[O-])c2C1=O [CBK115322] | 94.1 |
| O=C1c2cccc([N+](=O)[O-])c2C(=O)N1c1cc(Cl)cc(Cl)c1 [CBK115326] | 112 |

| Compound | viability at 28.5 h, 10 µM [%] |
| --- | --- |
| Cc1c(C(=O)O)c2cc(O)ccc2n1-c1ccccc1 [CBK115329] | 103 |
| COc1ccc(-n2c(C)c([N+](=O)[O-])c3ccc(O)cc32)cc1 [CBK115330] | 85 |
| COc1cc(C)c2c(N)c(C(C)=O)sc2n1 [CBK115336] | 94 |
| COC(=O)c1cc(C)nc2sc(C)c(N)c12 [CBK115343] | 85.8 |
| Cc1ccc2c(N)c(C(=O)c3ccccc3)sc2n1 [CBK115347] | 88.1 |
| CSc1cccc(NC(=O)c2sc3nc(C)cc(C)c3c2N)c1 [CBK115349] | 94.7 |
| CCOC(=O)c1c(CN(C)C)n(-c2ccccc2)c2cc(Br)c(OC)cc12 [CBK115360] | 117 |
| COc1ccc(C(=O)c2sc3nc(C)cc(C)c3c2N)cc1 [CBK115362] | 87.7 |
| O=C1Nc2ccc(C(=O)NCC(O)CO)cc2/C1=C/c1c[nH]c2ncccc12 (stereo not drawn) [CBK115363C] | 95.3 |
| CC(=O)OC1CCn2c1nc1cc(C(F)(F)F)ccc12 (stereo not drawn) [CBK115367] | 75.1 |
| CCOC(=O)c1sc2ncccc2c1N [CBK115371] | 83.9 |
| O=C(O)C(Cc1ccccc1)N1C(=O)c2cccc([N+](=O)[O-])c2C1=O (stereo not drawn) [CBK115372] | 95.8 |
| O=C1OC(c2ccccc2)=C/C1=C1/C(=O)Nc2ccccc21 [CBK115375] | 102 |
| CCOC(=O)c1sc2nc(C)ccc2c1N [CBK115377] | 96.5 |
| COc1ccc2c(c1)nc1n2CCC1OC(C)=O (stereo not drawn) [CBK115379] | 100 |
| O=C1N=C(NC2CCCC2)OC12CCN(Cc1ccccc1)CC2 [CBK115430] | 103 |
| CS(=O)(=O)N1CC2(CCN(CCCOc3ccccc3)CC2)c2ccccc21 [CBK115457T] | 106 |
| CS(=O)(=O)N1CC2(CCN(CCOCc3ccccc3)CC2)c2ccccc21 [CBK115458T] | 96.4 |
| CS(=O)(=O)N1CC2(CCN(CC3COc4ccccc4O3)CC2)c2ccccc21 (stereo not drawn) [CBK115461T] | 101 |
| CCCc1c(Cc2c(Cl)cccc2Cl)c(=O)n(C)n1C [CBK115466] | 93 |
| Cc1[nH]c(=O)[nH]c(=S)c1C(=O)Nc1ccc2[nH]c(C(F)(F)F)nc2c1 [CBK115494] | 95.2 |
| COc1cc(NC(=O)c2c(C)[nH]c(=O)[nH]c2=S)cc(C(F)(F)F)c1 [CBK115495] | 92.3 |
| COc1ccc(NC(=O)c2c(C)[nH]c(=O)[nH]c2=S)cc1OC [CBK115517] | 90.4 |
| Cc1[nH]c(=O)[nH]c(=S)c1C(=O)Nc1ccc2c(c1)OCO2 [CBK115519] | 100 |
